Data published in patent publication US20100183633A1, “INTERLEUKIN 6 AND TUMOR NECROSIS FACTOR ALPHA AS BIOMARKERS OF JNK INHIBITION” (UNIVERSITY OF MASSACHUSETTS, priority 2008, published 2010).

B1: IL6: inflammatory cytokine interleukin 6, given to mice by subcutaneous injection (1 μg/kg) (protein, UniProt P08505 25-211, looked up)
Interleukin-6: FPTSQVRRGDFTEDTTPNRPVYTTSQVGGLITHVLWEIVEMRKELCNGNSDCMNNDDALAENNLKLPEIQRNDGCYQTGYNQEICLLKISSGLLEYHSYLEYMKNNLKDNKKDKARVLQRDTETLIHIFNQEVKDLHKIVLPTPISNALLTDKLESQKEWLRTKTIQFILKSLEEFLKVTLRSTRQT

Columns and labels:
N^KO and N^WT mice = system: N^KO and N^WT mice
Procedure: (§1) All studies with the selective ablation of the Jnk1 gene in the mouse nervous system were performed using male mice (8-24 wks old). The mice were treated with PTU in the drinking water (cherry-flavored Cool-Aid supplemented without or with 1.2 mM PTU (Sigma)). Body temperature was measured using a Microtherma 2 Type “T” Thermometer (Braintree Scientic Inc). Rip-CreESR mice were treated with 1 mg 4-hydroxytamoxifen (Sigma) by intraperitoneal injection once each day for 5 consecutive days.
N^KO and N^WT mice were treated with PTU in the drinking water and the effect of feeding a chow diet or a HFD was examined.

Jnk1−/− mice = settings: PTU-treated Jnk1−/− mice
Procedure: as §1

[1] = Blood IL6 concentration after subcutaneous IL6 injection; format: in vivo; settings: IL6 1 μg/kg subcutaneous, HFD-fed F^KO mice, 90 mins post-injection, mean±SD, n=8
Procedure: (§2) FIG. 10E is a representation of an immunoblot to detect expression of SOCS3 and tubulin (control). F^WT and F^KO mice were fed a HFD (16 wks). F^KO mice were treated with IL6 (1 μg/kg) by subcutaneous injection. At 90 mins post-injection, the blood IL6 concentration was 44±9.1 pg/ml (mean±SD; n=8), the liver was isolated, and the expression of SOCS3 and Tubulin was examined by immunoblot analysis as set forth in Example 1.
Cytokine analysis: Cytokines in plasma, serum, and culture medium were measured by multiplexed ELISA using a Luminex 200 machine (Millipore) and serum mouse adipokine, adiponectin and cytokine kits (Millipore). Insulin and insulin C-peptide in plasma were measured by ELISA using a Luminex 200 machine. Blood glucose was measured with an Ascensia Breeze 2 glucose meter (Bayer). Alanine transaminase (ALT) and aspartate aminotransferase (AST) activity in serum was measured using the ALT and AST Reagent kit (Pointe Scientific) with a Tecan Sapphire […] microplate reader (Tecan Trading AG).

SOCS3 = experiment: Hepatic SOCS3 expression by immunoblot after IL6 treatment; format: in vivo; settings: acute IL6 1 μg/kg s.c., HFD-fed F^KO mice, liver at 90 mins; compared with HFD-fed F^WT
Procedure: as §2
(§3) Immunoblot analysis: Tissue extracts were prepared using Triton lysis buffer [20 mM Tris (pH 7.4), 1% Triton X-100, 10% glycerol, 137 mM NaCl, 2 mM EDTA, 25 mM β-glycerophosphate, 1 mM sodium orthovanadate, 1 mM phenylmethylsulfonyl fluoride, and 10 μg/mL of aprotinin and leupeptin]. […] Immunocomplexes were detected by enhanced chemiluminescence (NEN). Quantitation of immunoblots was performed using the Odyssey™ infrared imaging system (LI-COR Biosciences). The amount of total and phospho-JNK1/2, cJun, ERK1/2, p38 MAPK, and AKT in tissue extracts was measured by multiplexed ELISA using a Luminex 200 instrument (Millipore) […]

HFD-fed F^KO mice = experiment: Insulin tolerance test after IL6 treatment; format: in vivo; settings: IL6 1 μg/kg s.c., then insulin 0.75 mU/g i.p. after 90 mins; HFD-fed F^KO vs HFD-fed F^WT
Procedure: FIG. 10F is a graph of the glucose concentration during an ITT in which mice were treated by subcutaneous injection with IL6 (1 μg/kg) and then treated (after 90 mins) with insulin (0.75 mU/g) by intraperitoneal injection. Statistically significant differences between F^KO and F^WT mice are indicated (*, P<0.05; **, P<0.01).
Glucose tolerance, insulin tolerance, pyruvate challenge, and insulin clearance tests: The mice were fed a standard chow diet or a high fat diet (Iso Pro 3000, Purina and F3282, Bioserve Inc.) for 16 wks. Glucose tolerance tests (GTT), insulin tolerance tests (ITT), and pyruvate challenge tests were performed using methods described by Mora et al., FEBS Lett., 579, 3632 (2005). For GTT, mice fasted overnight were injected intraperitoneally with glucose (1 mg/g) and blood glucose concentration was measured over time. For ITT, mice fed ad libitum were injected intraperitoneally with insulin (0.75 mU/g) and blood glucose concentration was measured over time. In some ITT experiments, blood glucose concentration was measured at 30 minutes and the area under the curve (AUC) was calculated. For pyruvate challenge tests, mice fasted overnight were injected intraperitoneally with pyruvate (1 mg/g) and blood glucose concentration was measured over time. […]

AKT = experiment: Insulin-stimulated AKT activation (immunoblot) after IL6 treatment; format: in vivo; settings: IL6 1 μg/kg s.c., insulin 0.3 mU/g i.v. after 90 mins, HFD-fed F^KO mice
Procedure: FIGS. 10G and 10H are representations of immunoblots to detect AKT, phospho-AKT, and tubulin in liver (G) and epididymal fat pads (H). HFD-fed F^KO mice were subcutaneously injected with IL6 (1 μg/kg) and after 90 mins, intravenously injected with insulin (0.3 mU/g). The liver (G) and epididymal fat pads (H) were isolated after 5 mins and examined by immunoblot analysis as set forth in Example 1.
as §3

Molecule | expression of thyroid hormone responsive genes in intrascapular brown fat (N^KO and N^WT mice; PTU 1.2 mM in drinking water, NKO mice) | body weight when fed a HFD, N^KO vs N^WT (N^KO and N^WT mice; PTU in drinking water 12 wks, diet groups after 2 wks) | blood glucose, insulin, leptin and resistin concentrations and body temperature, N^KO vs N^WT (N^KO and N^WT mice; after 12 wks of PTU, chow-fed and HFD-fed) | metabolic phenotypes of NKO mice (N^KO and N^WT mice; inhibition of thyroid hormone by PTU-treatment) | effect of whole body JNK1-deficiency on HFD-induced weight gain, hyperglycemia, glucose intolerance, insulin sensitivity, glucose-induced insulin release (Jnk1−/− mice) | blood IL6 concentration [1] [pg/mL] | hepatic SOCS3 expression (SOCS3) | insulin resistance in insulin tolerance test (HFD-fed F^KO mice) | effect on AKT activation in the adipose tissue (AKT; epididymal fat pads) | insulin-stimulated AKT activation in the liver (AKT; liver)
CCCc1cc(=O)[nH]c(=S)[nH]1 [PTU, propylthiouracil] | suppressed the increased expression of thyroid hormone responsive genes | No statistically significant differences | No significant differences | markedly suppressed the metabolic phenotypes | significantly suppressed the effect of whole body JNK1-deficiency |  |  |  |  | 
B1 |  |  |  |  |  | 44 ± 9.1 | increased hepatic SOCS3 expression | became equally insulin resistant | only a moderate effect | reduced insulin-stimulated AKT activation
